The source of these data is US6071913A, “Angiotensin II receptor antagonistic 1,2,4-triazin-5-one derivatives” (Development Center for Biotechnology, priority 1997, dated 2000).

pIC50: −log10 of the molar value. Where two headings read alike, the source gives them in different places.

The assay addresses T1, Angiotensin II Type I Receptor (Homo sapiens, UniProt P30556).
T1 construct: purchased NEN Research Products NED-014
T1 sequence (P30556 1-359): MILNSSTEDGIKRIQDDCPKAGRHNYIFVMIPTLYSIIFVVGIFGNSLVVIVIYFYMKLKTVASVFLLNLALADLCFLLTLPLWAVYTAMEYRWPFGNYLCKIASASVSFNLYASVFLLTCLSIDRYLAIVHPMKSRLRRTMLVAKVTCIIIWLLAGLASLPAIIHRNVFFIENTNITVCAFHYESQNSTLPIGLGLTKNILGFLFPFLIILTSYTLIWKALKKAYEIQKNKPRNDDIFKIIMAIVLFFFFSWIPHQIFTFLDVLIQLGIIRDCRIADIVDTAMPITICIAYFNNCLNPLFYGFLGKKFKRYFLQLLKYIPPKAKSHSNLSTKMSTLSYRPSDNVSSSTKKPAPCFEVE
In words: Binding affinity to Angiotensin II receptor ([125I]-Sar1,Ile8-Angiotensin II radioligand, Angiotensin II Type I Receptor Kit NED-014). The procedure: The binding affinity of the compounds of the above Examples I to IX to angiotensin II receptor was tested. The procedures and results are as follows:
Assay for the Binding Affinity to Angiotensin II Receptor
The antagonistic activity of angiotensin II receptor was assayed by Angiotensin II Type I Receptor Kit (NED-014 NENQUEST Drug Discovery System, NEN Research Products, Massachusettes, USA). The kit comprises Angiotensin II Type I Receptor Concentrate, radioligand [^125 I]-Sar^1,Ile^8 -Angiotensin II Concentrate (5 Ci), Standard Concentrate (DuP 753, […]), Diluent Concentrate, and Filter-Soak Concentrate. In accordance with the manual of
NED-014 kit, the Radioligand Concentrate, Receptor Concentrate and Filter-Soak Concentrate were diluted with deionized water, and stored under suitable temperatures (-70° C. or ambient temperature).
1. Filter Device: Hoefer FH 224 V, Hoefer Scientific Instruments Inc., California, USA; Vacuum pressure=15 in. Hg.
2. γ-Counter: Beckman 5500, Beckman Instruments Inc., […]., USA.
The reagents were thawed on ice on the day of assays. Two sets of tubes, each with two tubes, were used, one for non-specific binding (NSB) and the other for total binding (TB). A series of standard solutions (with the final concentrations of 0.5, 1, 2, 5, 10, 20, 50 and 100 nM) were prepared. The tested compounds were dissolved and diluted to 500 nM for preliminary screening. […] To the NSB tubes were added 25 μL Standard Concentrate solutions, to the TB tubes were added 25 μL Diluent Concentration, and to other tubes were added 25 μL the solutions of tested compounds. Then, 25 μL radioligand were added to each tube (including the two tubes for total counts, TC). The two TC tubes were used later for the determination of the dosage of radioligand added to each tube. To the rest tubes, 200 μL Receptor Concentration solutions were added. The tubes were allowed to stand for 3 hours to reach equibilium completely. Filter papers (Sigma Catalog No. 1822024) were soaked in the Filter-Soak solution, and placed in the filter device. The contents in the tubes were poured onto the filter papers, and washed with saline twice. The slightly dry filter papers were placed into the γ-counter and counted with two minutes counter.
The data are expressed as counts per minute (CPM). Net CPM for Specific Binding of standards or tested compounds is defined as the CPM thereof minus that of NSP and calculated by equation 1:
CPMnet =CPMtested compounds or standard -CPMnon-specific
With the above equation, the Net CPM for Specific Binding of tested compounds and standards can be obtained.
Inhibition (% B/B0) is defined as the net CPM for Specific Binding over that of standard at 0 concentration and calculated by equation 2:
Inhibition (% B/B0) of tested compound=CPMnet of standard at 0
IC50 is defined as the concentration of compound corresponding 50% inhibition. IC50 of tested compounds can be obtained with EBDA software by calculating the inhibition (% B/B0) of the tested compounds at 7 different concentrations. In addition, as the binding activity of a series of compounds is correlated with receptors, IC50 of the tested compounds can also be obtained by equation 3 established from known IC50 and inhibition (% B/B0) of the series compounds: […]

Where [1] appears, read: marked * Calculated, read-out: IC50 (*Calculated).
Where [2] appears, read: concentration of compound corresponding to 50% inhibition, EBDA software, inhibition at 7 different concentrations, 3 hours incubation, read-out: IC50.

With `CCCCc1nnc(C)c(=O)n1Cc1ccc(-c2ccccc2-c2nnn[nH]2)cc1` [L, 6-methyl-3-butyl-5-oxo-4-[[2'-(1H-tetrazol-5-yl)biphenyl-4yl]methyl]-1,2,4-triazine], under setting [1], the pIC50 (as a rule, the negative decadic logarithm of the IC50, by convention in mol/L) is 6.51.
Consider `CCCCc1nc(=O)c(-c2ccccc2)nn1Cc1ccc(-c2ccccc2-c2nnn[nH]2)cc1` [N, 6-phenyl-3-butyl-5-oxo-2-[[2'-(1H-tetrazol-5-yl)biphenyl-4-yl]methyl]-1,2,4-triazine], for which the pIC50 under setting [2] was 6.47.
Take `CCCCc1nnc(-c2ccccc2)c(=O)n1Cc1ccc(-c2ccccc2-c2nnn[nH]2)cc1` [O, 6-phenyl-3-butyl-5-oxo-4-[[2'-(1H-tetrazol-5-yl)biphenyl-4-yl]methyl]-1,2,4-triazine]: the pIC50 under setting [1] is 7.20.
For `CCCCc1nc(=O)c(CCc2ccccc2)nn1Cc1ccc(-c2ccccc2-c2nnn[nH]2)cc1` [S, 6-(2'-phenylethyl)-3-butyl-5-oxo-2-[[2'-(1H-tetrazol-5-yl)biphenyl-4-yl]methyl]-1,2,4-triazine], the pIC50 under setting [2] is 7.17.
`CCCCc1nnc(CCc2ccccc2)c(=O)n1Cc1ccc(-c2ccccc2-c2nnn[nH]2)cc1` [T, 6-(2'-phenylethyl)-3-butyl-5-oxo-4-[[2'-(1H-tetrazol-5-yl)biphenyl-4-yl]methyl]-1,2,4-triazine]: the pIC50 under setting [2] is 7.26.
As for `CCCCc1nc(Cl)c(CCc2ccccc2)c(=O)n1Cc1ccc(-c2ccccc2-c2nnn[nH]2)cc1` [V, 2-butyl-5-(2'-phenylethyl)-6-chloro-3-[[2'-(1H-tetrazol-5-yl)biphenyl-4-yl]methyl]-4(3H)-pyrimidinone], under setting [1], the pIC50 is 7.14.
